# Assays:
# Format in all cases: cell-based
# [1] = test system: OVCAR-4; assay: In vitro cytotoxicity, NCI screen: OVCAR-4 (Ovarian); details: Homo sapiens; OVCAR-4, Ovarian panel, NCI protocol; read-out: GI50 values (μM conc.)
# Procedure: (§1) The in vitro anticancer activity studies for these amidobenzothiazoles were carried out at the National Cancer Institute, Maryland, USA.
# (§2) The amidobenzothiazoles have been tested against sixty human tumor cell lines derived from nine cancer types (leukemia cancer cell line, non-small cell lung cancer cell line, colon cancer cell line, CNS cancer cell line, melanoma cancer cell line, ovarian cancer cell line, renal cancer cell line, prostate cancer cell line and breast cancer cell lines). For these compounds results are expressed in GI50 values of that particular cancer cell at micro molar (μM) concentration as per NCI protocol.
# [2] = test system: SK-MEL-2; assay: In vitro cytotoxicity, NCI screen: SK-MEL-2 (Melanoma); details: Homo sapiens; SK-MEL-2, Melanoma panel, NCI protocol; read-out: GI50 values (μM conc.)
# Procedure: as §1, §2
# [3] = test system: KM12; assay: In vitro cytotoxicity, NCI screen: KM12 (Colon); details: Homo sapiens; KM12, Colon panel, NCI protocol; read-out: GI50 values (μM conc.)
# Procedure: as §1, §2
# [4] = test system: PC-3; assay: In vitro cytotoxicity, NCI screen: PC-3 (Prostate); details: Homo sapiens; PC-3, Prostate panel, NCI protocol; read-out: GI50 values (μM conc.)
# Procedure: as §1, §2
# [5] = test system: NCI-H23; assay: In vitro cytotoxicity, NCI screen: NCI-H23 (Non-small cell lung); details: Homo sapiens; NCI-H23, Non-small cell lung panel, NCI protocol; read-out: GI50 values (μM conc.)
# Procedure: as §1, §2
# [6] = test system: IGROV1; assay: In vitro cytotoxicity, NCI screen: IGROV1 (Ovarian); details: Homo sapiens, IGROV-1; IGROV1, Ovarian panel, NCI protocol; read-out: GI50 values (μM conc.)
# Procedure: as §1, §2
# [7] = test system: MDA-MB-231/ATCC; assay: In vitro cytotoxicity, NCI screen: MDA-MB-231/ATCC (Breast); details: Homo sapiens, Breast panel, NCI protocol, read-out: GI50 values (μM conc.)
# Procedure: as §1, §2
# [8] = test system: K-562; assay: In vitro cytotoxicity, NCI screen: K-562 (Leukemia); details: Homo sapiens, K562; read-out: GI50 values (μM conc.)
# Procedure: as §1, §2
# [9] = test system: HCC-2998; assay: In vitro cytotoxicity, NCI screen: HCC-2998 (Colon); details: Homo sapiens; HCC-2998, Colon panel, NCI protocol; read-out: GI50 values (μM conc.)
# Procedure: as §1, §2
# [10] = test system: HCT-116; assay: In vitro cytotoxicity, NCI screen: HCT-116 (Colon); details: Homo sapiens, read-out: GI50 values (μM conc.)
# Procedure: as §1, §2
# [11] = test system: NCI-H522; assay: In vitro cytotoxicity, NCI screen: NCI-H522 (Non-small cell lung); details: Homo sapiens; NCI-H522, Non-small cell lung panel, NCI protocol; read-out: GI50 values (μM conc.)
# Procedure: as §1, §2
# [12] = test system: SNB-75; assay: In vitro cytotoxicity, NCI screen: SNB-75 (CNS); details: Homo sapiens; SNB-75, CNS panel, NCI protocol; read-out: GI50 values (μM conc.)
# Procedure: as §1, §2
# [13] = test system: CCRF-CEM; assay: In vitro cytotoxicity, NCI sixty cell line screen: CCRF-CEM (Leukemia); details: Homo sapiens, Leukemia panel, NCI protocol, read-out: GI50 values (μM conc.)
# Procedure: as §1, §2
# [14] = test system: LOX IMVI; assay: In vitro cytotoxicity, NCI screen: LOX IMVI (Melanoma); details: Homo sapiens, Melanoma panel, NCI protocol, read-out: GI50 values (μM conc.)
# Procedure: as §1, §2
# [15] = test system: DU-145; assay: In vitro cytotoxicity, NCI screen: DU-145 (Prostate); details: Homo sapiens, read-out: GI50 values (μM conc.)
# Procedure: as §1, §2
# [16] = test system: SN12C; assay: In vitro cytotoxicity, NCI screen: SN12C (Renal); details: Homo sapiens, Renal panel, NCI protocol, read-out: GI50 values (μM conc.)
# Procedure: as §1, §2
# [17] = test system: SK-OV-3; assay: In vitro cytotoxicity, NCI screen: SK-OV-3 (Ovarian); details: Homo sapiens; SK-OV-3, Ovarian panel, NCI protocol; read-out: GI50 values (μM conc.)
# Procedure: as §1, §2
# [18] = test system: MDA-MB-468; assay: In vitro cytotoxicity, NCI screen: MDA-MB-468 (Breast); details: Homo sapiens, read-out: GI50 values (μM conc.)
# Procedure: as §1, §2
# [19] = test system: prostate cancer cell lines; assay: In vitro activity against prostate cancer cell lines (panel range); details: Homo sapiens, read-out: GI50 values, range over the listed compounds and the panel
# Procedure: as §1, §2
# [20] = test system: A549/ATCC; assay: In vitro cytotoxicity, NCI screen: A549/ATCC (Non-small cell lung); details: Homo sapiens, Non-small cell lung panel, NCI protocol, read-out: GI50 values (μM conc.)
# Procedure: as §1, §2
# [21] = test system: MDA-MB-435; assay: In vitro cytotoxicity, NCI screen: MDA-MB-435 (Melanoma); details: Homo sapiens; MDA-MB-435, Melanoma panel, NCI protocol; read-out: GI50 values (μM conc.)
# Procedure: as §1, §2
# [22] = test system: MOLT-4; assay: In vitro cytotoxicity, NCI screen: MOLT-4 (Leukemia); details: Homo sapiens; MOLT-4, Leukemia panel, NCI protocol; read-out: GI50 values (μM conc.)
# Procedure: as §1, §2
# [23] = test system: SF-268; assay: In vitro cytotoxicity, NCI screen: SF-268 (CNS); details: Homo sapiens, read-out: GI50 values (μM conc.)
# Procedure: as §1, §2
# [24] = test system: COLO-205; assay: In vitro cytotoxicity, NCI screen: COLO-205 (Colon); details: Homo sapiens; COLO-205, Colon panel, NCI protocol; read-out: GI50 values (μM conc.)
# Procedure: as §1, §2
# [25] = test system: NCI/ADR-RES; assay: In vitro cytotoxicity, NCI screen: NCI/ADR-RES (Ovarian); details: Homo sapiens, Ovarian panel, NCI protocol, read-out: GI50 values (μM conc.)
# Procedure: as §1, §2
# [26] = test system: A498; assay: In vitro cytotoxicity, NCI screen: A498 (Renal); details: Homo sapiens; A498, Renal panel, NCI protocol; read-out: GI50 values (μM conc.)
# Procedure: as §1, §2
# [27] = test system: ACHN; assay: In vitro cytotoxicity, NCI screen: ACHN (Renal); details: Homo sapiens, Renal panel, NCI protocol, read-out: GI50 values (μM conc.)
# Procedure: as §1, §2
# [28] = test system: SF-539; assay: In vitro cytotoxicity, NCI screen: SF-539 (CNS); details: Homo sapiens, read-out: GI50 values (μM conc.)
# Procedure: as §1, §2
# [29] = test system: UO-31; assay: In vitro cytotoxicity, NCI screen: UO-31 (Renal); details: Homo sapiens; UO-31, Renal panel, NCI protocol; read-out: GI50 values (μM conc.)
# Procedure: as §1, §2
# [30] = test system: SK-MEL-28; assay: In vitro cytotoxicity, NCI screen: SK-MEL-28 (Melanoma); details: Homo sapiens; SK-MEL-28, Melanoma panel, NCI protocol; read-out: GI50 values (μM conc.)
# Procedure: as §1, §2
# [31] = test system: SNB-19; assay: In vitro cytotoxicity, NCI screen: SNB-19 (CNS); details: Homo sapiens; SNB-19, CNS panel, NCI protocol; read-out: GI50 values (μM conc.)
# Procedure: as §1, §2
SMILES,GI50 [1] [µM],GI50 [4] [µM],GI50 [5] [µM],GI50 [6] [µM],GI50 [7] [µM],GI50 [9] [µM],GI50 [10] [µM],GI50 [11] [µM],GI50 [12] [µM],GI50 [14] [µM],GI50 [15] [µM],GI50 [16] [µM],GI50 [17] [µM],GI50 [18] [µM],GI50 [19] [µM],GI50 [20] [µM],GI50 [21] [µM],GI50 [23] [µM],GI50 [24] [µM],GI50 [25] [µM],other results
"COc1ccc(/C=C\c2cc(OC)c(OC)c(OC)c2)cc1OCC(=O)Nc1nc2ccccc2s1 [Compound 8a, N1-(1,3-benzothiazol-2-yl)-2-{2-methoxy-5-[(Z)-2-(3,4,5-trimethoxyphenyl)-1-ethenyl]phenoxy}acetamide]",0.37,0.18,0.11,0.21,0.19,0.37,0.046,0.079,0.046,0.067,0.1,0.37,0.34,0.1,0.18 to 22.9,0.34,0.019,0.18,2.83,0.033,GI50 [2]: 0.18 µM; GI50 [3]: 0.058 µM; GI50 [8]: 0.042 µM; GI50 [13]: 0.078 µM; GI50 [22]: 0.34 µM; GI50 [26]: 0.36 µM; GI50 [27]: 0.093 µM; GI50 [28]: 0.045 µM; GI50 [29]: 0.58 µM
"COc1ccc(/C=C\c2cc(OC)c(OC)c(OC)c2)cc1OCC(=O)Nc1nc2ccc(F)cc2s1 [Compound 8e, N1-(6-fluoro-1,3-benzothiazol-2-yl)-2-{2-methoxy-5-[(Z)-2-(3,4,5-trimethoxyphenyl)-1-ethenyl]phenoxy}acetamide]",7.3,6.74,4.26,4.17,9.34,> 100,4.48,2.92,4.39,3.23,8.97,4.61,8,3.68,0.18 to 22.9,5.99,0.33,7.23,7.78,2.55,GI50 [2]: 8.46 µM; GI50 [3]: 4.78 µM; GI50 [30]: > 100 µM; GI50 [8]: 3.62 µM; GI50 [13]: 3.7 µM; GI50 [22]: 3.07 µM; GI50 [26]: 6.25 µM; GI50 [27]: 3.33 µM; GI50 [31]: > 100 µM; GI50 [28]: 4.51 µM; GI50 [29]: 2.56 µM
"COc1ccc2nc(NC(=O)COc3cc(/C=C\c4cc(OC)c(OC)c(OC)c4)ccc3OC)sc2c1 [Compound 8g, N1-(6-methoxy-1,3-benzothiazol-2-yl)-2-{2-methoxy-5-[(Z)-2-(3,4,5-trimethoxyphenyl)-1-ethenyl]phenoxy}acetamide]",5.31,4.45,3.91,7,5.4,7.34,3.7,3.09,1.91,4.17,2.04,5.75,4.69,2.29,0.18 to 22.9,5.19,1.16,4.31,3.89,2.3,GI50 [2]: 4.07 µM; GI50 [3]: 3.12 µM; GI50 [30]: 4.41 µM; GI50 [8]: 3.6 µM; GI50 [13]: 3.87 µM; GI50 [22]: 3.87 µM; GI50 [26]: 3.5 µM; GI50 [27]: 7.77 µM; GI50 [31]: 6.3 µM; GI50 [28]: 2.84 µM; GI50 [29]: 4.31 µM
"COc1ccc(C2CC(c3cc(OC)c(OC)c(OC)c3)=NN2C(C)=O)cc1OCC(=O)Nc1nc2ccc(C(F)(F)F)cc2s1 (stereo not drawn) [Compound 10i, N1-(6-(trifluoromethyl)-1,3-benzothiazol-2-yl)-2-{5-[1-acetyl-3-(3,4,5-trimethoxyphenyl)-4,5-dihydro-1H-5-pyrazolyl]-2-methoxyphenoxy}acetamide]",2.9,2.92,3.76,5.3,3.11,> 100,2.39,2.71,1.55,3.36,1.82,3.31,5.75,6.12,0.18 to 22.9,2.16,3.08,3.84,3.94,3.13,GI50 [30]: 3.56 µM; GI50 [26]: 2.78 µM; GI50 [27]: 2.48 µM; GI50 [31]: 11 µM; GI50 [28]: 1.75 µM; GI50 [29]: 1.93 µM

# From patent publication US9102638B2, “Amidobenzothiazoles and process for the preparation thereof” (COUNCIL OF SCIENTIFIC & INDUSTRIAL RESEARCH, priority 2011, dated 2015)
